How the values were obtained:
[1] = 101.33 kPa, Liquid
[2] = xn = mol fraction of the nth substance listed; conditions: 101.3 kPa, Liquid

CCOC(=O)OCC [diethyl carbonate]
[1]
Conditions | mass density [kg/m3]
288.15 K | 980.29
293.15 K | 974.57
298.15 K | 969.07
303.15 K | 963.6
308.15 K | 957.98
318.15 K | 947.67
328.15 K | 935.12

CCOC(=O)OCC [diethyl carbonate] + CCCCCCCCCCCC
[2]
Conditions | mass density [kg/m3]
288.15 K, x1 = 0.1242 | 766.85
288.15 K, x1 = 0.2013 | 776.91
288.15 K, x1 = 0.2481 | 783.48
288.15 K, x1 = 0.309 | 792.61
288.15 K, x1 = 0.4053 | 808.61
288.15 K, x1 = 0.5069 | 827.83
288.15 K, x1 = 0.603 | 848.75
288.15 K, x1 = 0.7026 | 873.85
288.15 K, x1 = 0.8014 | 903.1
288.15 K, x1 = 0.8997 | 937.64
288.15 K, x1 = 0.9501 | 958.03
293.15 K, x1 = 0.1018 | 760.24
293.15 K, x1 = 0.2018 | 772.97
293.15 K, x1 = 0.2513 | 779.88
293.15 K, x1 = 0.3056 | 787.96
293.15 K, x1 = 0.4094 | 805.05
293.15 K, x1 = 0.5064 | 823.29
293.15 K, x1 = 0.604 | 844.35
293.15 K, x1 = 0.7024 | 868.92
293.15 K, x1 = 0.8026 | 898.28
293.15 K, x1 = 0.9022 | 933.11
293.15 K, x1 = 0.9498 | 952.23
298.15 K, x1 = 0.1025 | 756.57
298.15 K, x1 = 0.2042 | 769.39
298.15 K, x1 = 0.2522 | 776.01
298.15 K, x1 = 0.3009 | 783.17
298.15 K, x1 = 0.4041 | 799.89
298.15 K, x1 = 0.5027 | 818.2
298.15 K, x1 = 0.6059 | 840.28
298.15 K, x1 = 0.7074 | 865.61
298.15 K, x1 = 0.799 | 892.28
298.15 K, x1 = 0.8994 | 926.96
298.15 K, x1 = 0.9513 | 947.6
303.15 K, x1 = 0.1013 | 752.68
303.15 K, x1 = 0.2027 | 765.3
303.15 K, x1 = 0.2521 | 772.06
303.15 K, x1 = 0.3003 | 779.07
303.15 K, x1 = 0.4041 | 795.74
303.15 K, x1 = 0.4993 | 813.2
303.15 K, x1 = 0.605 | 835.58
303.15 K, x1 = 0.7035 | 859.82
303.15 K, x1 = 0.7993 | 887.45
303.15 K, x1 = 0.8999 | 921.93
303.15 K, x1 = 0.9508 | 942.05
308.15 K, x1 = 0.1049 | 749.28
308.15 K, x1 = 0.2059 | 761.76
308.15 K, x1 = 0.2441 | 766.93
308.15 K, x1 = 0.3043 | 775.59
308.15 K, x1 = 0.4026 | 791.26
308.15 K, x1 = 0.5062 | 810.2
308.15 K, x1 = 0.6032 | 830.59
308.15 K, x1 = 0.7045 | 855.29
308.15 K, x1 = 0.8015 | 883.09
308.15 K, x1 = 0.9005 | 916.79
308.15 K, x1 = 0.9507 | 936.48
318.15 K, x1 = 0.1041 | 741.75
318.15 K, x1 = 0.1989 | 753.22
318.15 K, x1 = 0.2492 | 759.89
318.15 K, x1 = 0.3079 | 768.25
318.15 K, x1 = 0.4075 | 783.98
318.15 K, x1 = 0.5 | 800.6
318.15 K, x1 = 0.6026 | 821.73
318.15 K, x1 = 0.7001 | 845.05
318.15 K, x1 = 0.7995 | 872.99
318.15 K, x1 = 0.8973 | 905.76
318.15 K, x1 = 0.9485 | 925.55
328.15 K, x1 = 0.1023 | 733.88
328.15 K, x1 = 0.2027 | 745.71
328.15 K, x1 = 0.2498 | 751.81
328.15 K, x1 = 0.3042 | 759.33
328.15 K, x1 = 0.3984 | 773.69
328.15 K, x1 = 0.5099 | 793.25
328.15 K, x1 = 0.6045 | 812.43
328.15 K, x1 = 0.7037 | 835.73
328.15 K, x1 = 0.7992 | 862.04
328.15 K, x1 = 0.8987 | 894.71
328.15 K, x1 = 0.9506 | 914.36

COC(=O)OC [dimethyl carbonate]
[1]
Conditions | mass density [kg/m3]
288.15 K | 1076.43
293.15 K | 1069.95
298.15 K | 1063.26
303.15 K | 1056.61
308.15 K | 1050.01
318.15 K | 1036.65
328.15 K | 1022.92

CCCCCCCCCCCC [dodecane]
[1]
Conditions | mass density [kg/m3]
288.15 K | 752.44
293.15 K | 748.8
298.15 K | 745.19
303.15 K | 741.57
308.15 K | 737.93
318.15 K | 730.7
328.15 K | 723.32

CCCCCCCCCCCC [dodecane] + COC(=O)OC
[2]
Conditions | mass density [kg/m3]
288.15 K, x2 = 0.1 | 763.29
288.15 K, x2 = 0.1984 | 775.97
288.15 K, x2 = 0.2519 | 783.82
288.15 K, x2 = 0.2998 | 791.48
288.15 K, x2 = 0.3943 | 808.72
288.15 K, x2 = 0.9498 | 1031.65
293.15 K, x2 = 0.0994 | 759.42
293.15 K, x2 = 0.2008 | 772.33
293.15 K, x2 = 0.2474 | 779.08
293.15 K, x2 = 0.2967 | 786.85
293.15 K, x2 = 0.3962 | 804.76
293.15 K, x2 = 0.9006 | 989.35
293.15 K, x2 = 0.9507 | 1026.33
298.15 K, x2 = 0.1015 | 755.81
298.15 K, x2 = 0.1968 | 767.75
298.15 K, x2 = 0.2518 | 775.63
298.15 K, x2 = 0.3057 | 784.12
298.15 K, x2 = 0.4019 | 801.57
298.15 K, x2 = 0.4976 | 822.41
298.15 K, x2 = 0.5975 | 849.03
298.15 K, x2 = 0.7026 | 884.3
298.15 K, x2 = 0.7991 | 925.9
298.15 K, x2 = 0.9011 | 984.3
298.15 K, x2 = 0.9512 | 1020.8
303.15 K, x2 = 0.0995 | 751.67
303.15 K, x2 = 0.195 | 763.42
303.15 K, x2 = 0.2498 | 771.18
303.15 K, x2 = 0.3315 | 784.26
303.15 K, x2 = 0.3999 | 796.8
303.15 K, x2 = 0.4997 | 818.35
303.15 K, x2 = 0.6015 | 845.3
303.15 K, x2 = 0.6974 | 876.92
303.15 K, x2 = 0.798 | 919.35
303.15 K, x2 = 0.8988 | 976.31
303.15 K, x2 = 0.9497 | 1012.95
308.15 K, x2 = 0.0998 | 747.85
308.15 K, x2 = 0.1992 | 759.93
308.15 K, x2 = 0.2486 | 766.84
308.15 K, x2 = 0.2938 | 773.75
308.15 K, x2 = 0.4017 | 792.74
308.15 K, x2 = 0.5014 | 814.12
308.15 K, x2 = 0.5995 | 839.81
308.15 K, x2 = 0.6978 | 871.92
308.15 K, x2 = 0.7983 | 914.04
308.15 K, x2 = 0.9004 | 971.25
308.15 K, x2 = 0.9494 | 1006.38
318.15 K, x2 = 0.1003 | 740.31
318.15 K, x2 = 0.2044 | 752.75
318.15 K, x2 = 0.251 | 759.14
318.15 K, x2 = 0.3042 | 767.18
318.15 K, x2 = 0.401 | 783.99
318.15 K, x2 = 0.4988 | 804.44
318.15 K, x2 = 0.6028 | 831.06
318.15 K, x2 = 0.6973 | 861.26
318.15 K, x2 = 0.8023 | 904.51
318.15 K, x2 = 0.8976 | 956.98
318.15 K, x2 = 0.9497 | 993.69
328.15 K, x2 = 0.0924 | 731.92
328.15 K, x2 = 0.2 | 744.23
328.15 K, x2 = 0.25 | 750.88
328.15 K, x2 = 0.3 | 758.18
328.15 K, x2 = 0.4007 | 775.11
328.15 K, x2 = 0.5003 | 795.39
328.15 K, x2 = 0.6158 | 824.8
328.15 K, x2 = 0.7057 | 853.75
328.15 K, x2 = 0.7855 | 885.61
328.15 K, x2 = 0.8981 | 945.23
328.15 K, x2 = 0.9483 | 979.79
